Values of other authors as cited in US20050159439A1, “Management of postoperative pain” (priority 2001, published 2005).

Test system: subjects operated on for lumbar disc herniation
Settings: 10 mg epidural morphine, lumbar disc herniation surgery

CN1CC[C@]23c4c5ccc(O)c4O[C@H]2[C@@H](O)C=C[C@H]3[C@H]1C5 [morphine]
Pain relief: significant pain relief | Side effect: urinary retention was the relevant side effect
